# Assay results from US5416073A, “Growth hormone-releasing peptides and method of treating animals, therewith” (The Adminstrators of the Tulane Educational Fund, priority 1985, dated 1995).
# What was measured:
# [1] = tested on: dairy cows; assay: Effect on milk production in dairy cows, treatments administered subcutaneously; format: in vivo; conditions: for Milk Production: 10-day treatment period, mean, saline control 22.2; for % increase over control: milk production, vs saline control
# Procedure: In this test, treatments are administered using a Latin Square design using four cows. Each treatment period is 10 days, and the interval between treatments is 4 days.
# There is a pre-treatment period of one week, at the end of which each cow receives an indwelling jugular catheter. Catheters are flushed daily with heparinized (500-1000 IU/ml) sterile saline to help maintain potency and are replaced as needed.
# The drugs are solubilized in sterile saline and injected subcutaneously each day with the dosage based on the cow's weight. Dosages range from 0.06 mg/kg animal/day to 60 mg/kg animal/day, preferably 0.10 mg/kg animal/day to 50 mg/kg/day.
# On the first and last treatment days of each period, blood is collected at 15 minute intervals for 1 hour prior to and 11/2 hours after treatment; sampling continues at 30 minutes intervals for an additional 31/2 hours.
# Milk samples are obtained on the evening proceeding each bleeding day, the morning of each bleeding day and combined (50% each).
# Feed intake, refusals and milk production is monitored for all animals.
# Results obtained are reported as mean milk production in kg/day for each treatment and compared against a saline control.
# [2] = tested on: Growth Hormone Release; assay: Peptide effects on growth hormone release, plasma GH by RIA in anesthetized male rats; format: in vivo, rat
# Procedure: In this evaluation, the procedures described by W. A. Murphy et al., Endocrinology 109:491-495 (1980), were employed.
# In growth hormone (GH) experiments, male rats (Charles Rivers) were anesthetized with NEMBUTAL® (6 mg per 100 g body weight) which also served to maintain stimulated plasma GH levels. Exactly 30 minutes after the rats were anesthetized, 0.5 mL of saline or the test peptide in saline was administered as a SC bolus. A 1 mL blood sample was drawn from the jugular vein 15 minutes after the injection of the peptide in saline. GH levels were determined using NIADDKD rat GH RIA components.
smiles,measurement,setting,value
"CC[C@H](C)[C@H](NC(=O)[C@H](C)NC(=O)[C@H](CC(=O)O)NC(=O)[C@@H](C)NC(=O)[C@@H](N)Cc1ccc(O)cc1)C(=O)N[C@@H](Cc1ccccc1)C(=O)N[C@H](C(=O)N[C@@H](CC(N)=O)C(=O)N[C@@H](CO)C(=O)N[C@@H](Cc1ccc(O)cc1)C(=O)N[C@@H](CCCNC(=N)N)C(=O)N[C@@H](CCCCN)C(=O)N[C@H](C(=O)N[C@@H](CC(C)C)C(=O)NCC(=O)N[C@@H](CCC(N)=O)C(=O)N[C@@H](CC(C)C)C(=O)N[C@@H](CO)C(=O)N[C@@H](C)C(=O)N[C@@H](CCCNC(=N)N)C(=O)N[C@@H](CCCCN)C(=O)N[C@@H](CC(C)C)C(=O)N[C@@H](CC(C)C)C(=O)N[C@@H](CCC(N)=O)C(=O)N[C@@H](CC(=O)O)C(=O)N[C@H](C(=O)N[C@@H](CCSC)C(=O)N[C@@H](CO)C(=O)N[C@@H](CCCNC(=N)N)C(N)=O)[C@@H](C)CC)C(C)C)[C@@H](C)O [[D-Ala^2]-hpGRF(1-29)-NH2, D-alanine^2-human Pancreatic Growth Hormone-Releasing(1-29)-amide]",Milk Production,[1]; 0.4 mg/kg/day SC,23.9 kg/day
same,Milk Production,[1]; 0.8 mg/kg/day SC,23.8 kg/day
same,% increase over control,[1]; 0.4 mg/kg/day SC,+7.6%
same,% increase over control,[1]; 0.8 mg/kg/day SC,+7.2%
same,Plasma GH,"[2]; dose 0.08 μg/100 g BW SC, 15 min, saline 454 ± 62",1118 ± 158 ng/mL
same,Plasma GH,"[2]; dose 0.20 μg/100 g BW SC, 15 min, saline 454 ± 62",2122 ± 350 ng/mL
same,Plasma GH,"[2]; dose 0.50 μg/100 g BW SC, 15 min, saline 454 ± 62",3539 ± 109 ng/mL
"CCCC[C@H](NC(=O)[C@@H](NC(=O)[C@H](CC(=O)O)NC(=O)[C@H](CCC(N)=O)NC(=O)[C@H](CC(C)C)NC(=O)[C@H](CC(C)C)NC(=O)[C@H](CCCCN)NC(=O)[C@H](CCCNC(=N)N)NC(=O)[C@H](C)NC(=O)[C@H](CO)NC(=O)[C@H](CC(C)C)NC(=O)[C@H](CCC(N)=O)NC(=O)CNC(=O)[C@H](CC(C)C)NC(=O)[C@@H](NC(=O)[C@H](CCCCN)NC(=O)[C@H](CCCNC(=N)N)NC(=O)[C@H](Cc1ccc(O)cc1)NC(=O)[C@H](CO)NC(=O)[C@@H](CC(N)=O)NC(=O)[C@@H](NC(=O)[C@H](Cc1ccccc1)NC(=O)[C@@H](NC(=O)[C@H](C)NC(=O)[C@@H](CC(=O)O)NC(=O)[C@@H](C)NC(=O)[C@@H](N)Cc1ccc(O)cc1)[C@@H](C)CC)[C@@H](C)O)C(C)C)[C@@H](C)CC)C(=O)N[C@@H](CO)C(=O)N[C@@H](CCCNC(=N)N)C(N)=O [D-Ala^2 -D-Asp^3 -D-Asn^8 -Nle^27, D-alanine^2, D-aspartic acid^3, D-asparagine^8, Norleucine27-human Pancreatic Growth Hormone-Releasing(1-29)-amide]",Plasma GH,"[2]; dose 0.1 ug/100 g BW SC, 15 min, saline 383 ± 79",767 ± 146 ng/mL
same,Plasma GH,"[2]; dose 1.0 ug/100 g BW SC, 15 min, saline 383 ± 79",2419 ± 252 ng/mL
"CC[C@H](C)[C@H](NC(=O)[C@H](C)NC(=O)[C@H](CC(=O)O)NC(=O)[C@@H](C)NC(=O)[C@@H](Cc1ccc(O)cc1)NC(C)=O)C(=O)N[C@@H](Cc1ccccc1)C(=O)N[C@H](C(=O)N[C@@H](CC(N)=O)C(=O)N[C@@H](CO)C(=O)N[C@@H](Cc1ccc(O)cc1)C(=O)N[C@@H](CCCNC(=N)N)C(=O)N[C@@H](CCCCN)C(=O)N[C@H](C(=O)N[C@@H](CC(C)C)C(=O)NCC(=O)N[C@@H](CCC(N)=O)C(=O)N[C@@H](CC(C)C)C(=O)N[C@@H](CO)C(=O)N[C@@H](C)C(=O)N[C@@H](CCCNC(=N)N)C(=O)N[C@@H](CCCCN)C(=O)N[C@@H](CC(C)C)C(=O)N[C@@H](CC(C)C)C(=O)N[C@@H](CCC(N)=O)C(=O)N[C@@H](CC(=O)O)C(=O)N[C@H](C(=O)N[C@@H](CCSC)C(=O)N[C@@H](CO)C(=O)N[C@@H](CCCNC(=N)N)C(N)=O)[C@@H](C)CC)C(C)C)[C@@H](C)O [[N-Ac-D-Tyr^1, D-Ala^2]-hpGRF(1-29)-NH2, N-acetyl-D-tyrosine^1,D-alanine^2-human pancreatic growth hormone-releasing (1-29)-amine]",Plasma GH,"[2]; dose 0.2 μ/100 g BW SC, 15 min, saline 333 ± 50",680 ± 100 ng/mL
same,Plasma GH,"[2]; dose 0.5 μ/100 g BW SC, blood 15 min after injection, saline 333 ± 50",499 ± 50 ng/mL
same,Plasma GH,"[2]; dose 0.8 μ/100 g BW SC, 15 min, saline 333 ± 50",2063 ± 251 ng/mL
same,Plasma GH,"[2]; dose 3.2 μ/100 g BW SC, 15 min, saline 333 ± 50",3818 ± 412 ng/mL
